# Results as given in patent US11999806B2, “Broad-spectrum polypeptide against enterovirus and application thereof” (WUHAN INSTITUTE OF VIROLOGY, CHINESE ACADEMY OF SCIENCES, priority 2018, dated 2024).
# Values joined by “and” are separate entries in the source; they are usually repeats but may differ in a detail not shown here. Identical values can stand only once. No end group written: not given here.
# What was measured:
# [1] = Cytotoxicity by CCK-8 in RD cells; type: cell-based; conditions: human; for viability at 24 h, 0.01 µM: 0.01 μM polypeptide; for viability at 24 h, 0.01 µM / viability at 24 h, 0.1 µM / viability at 24 h, 1 µM / viability at 24 h, 10 µM / viability at 24 h, 100 µM: untreated = 100%, read-out: Cell viability (%); for viability at 24 h, 0.1 µM: 0.1 μM polypeptide; for viability at 24 h, 1 µM: 1 μM polypeptide; for viability at 24 h, 10 µM: 10 μM polypeptide; for viability at 24 h, 100 µM: 100 μM polypeptide; for CC50 at 24 h: Table 1 summary, cell line not given, read-out: CC50
# Procedure: (§1) The experiment was performed as follows. • (1) RD cells were plated in a 96-well plate at 100 μl per well. • (2) After the cells reached 70%-80% confluence, the MEM medium containing 10% serum was replaced with a MEM medium containing 2% serum. Then, polypeptide P2 was added to generate gradient concentrations of 0.01 μM, 0.1 μM, 1 μM, 10 μM, and 100 μM (final concentration), respectively. • (3) The test was performed 24 hours after the addition of the polypeptide, and 10 μl of viable cell detection reagent CCK-8 was added to each well and mixed well. • (4) The plate was incubated at 37° C. for 2 h. • (5) The absorbance value at OD450 was measured with a microplate reader.
# as §1, with “P1” for “P2”, “concentrations),” for “concentration),”
# (§2) RD cells were used to test the antiviral effect of polypeptide P1. When RD cells reached 80% confluence, polypeptide P1 was added at concentrations of 0 μM (control group), 0.01 μM, 0.1 μM, 1 μM, 10 μM, and 100 μM, respectively. Three parallel wells were used for each concentration. The test was carried out 24 hours later, and the cell viability was detected using the CCK-8 kit.
# as §1, with “3A-TAT-EP” for “P2”, “concentrations),” for “concentration),”
# as §2, with “3A-TAT-EP.” for “P1.”, “3A-TAT-EP” for “P1”
# as §1, with “Then, 3A-EP-DRI or 3A-EP-PEG4-PA” for “Then, polypeptide P2”, “and 50” for “and 100”, “(final concentrations),” for “(final concentration),”
# as §2, with “polypeptides 3A-EP-DRI and 3A-EP-PEG4-PA.” for “polypeptide P1.”, “3A-EP-DRI or 3A-EP-PEG4-PA” for “P1”, “50” for “100”, “kit. […]” for “kit.”
# RD cells = assay: Cytotoxicity by CCK-8 in RD cells; type: cell-based; conditions: RD cells; for Cell viability (%): 24 h, untreated = 100%; for cytotoxicity, result in words: CCK-8, 24 h
# Procedure: as §1
# as §1, with “P1” for “P2”, “concentrations),” for “concentration),”
# as §2
# as §1, with “3A-TAT-EP” for “P2”, “concentrations),” for “concentration),”
# as §2, with “3A-TAT-EP.” for “P1.”, “3A-TAT-EP” for “P1”
# as §1, with “Then, 3A-EP-DRI or 3A-EP-PEG4-PA” for “Then, polypeptide P2”, “and 50” for “and 100”, “(final concentrations),” for “(final concentration),”
# as §2, with “polypeptides 3A-EP-DRI and 3A-EP-PEG4-PA.” for “polypeptide P1.”, “3A-EP-DRI or 3A-EP-PEG4-PA” for “P1”, “50” for “100”, “kit. […]” for “kit.”
# EV71 = assay: Anti-EV71 efficiency in RD cells, viral RNA by qRT-PCR; type: cell-based, enterovirus 71; conditions: 24 h, control infected without polypeptide
# Procedure: • (1) RD cells were plated in five 100 mm dishes. • (2) After the cells reached 70%-80% confluence, the MEM medium containing 10% serum was replaced with a MEM medium containing 2% serum. […] When the changes were obvious, samples were collected as follows. • (4) The supernatant in the 100 mm dish was transferred into a 15 ml centrifuge tube, and centrifuged at 500 g for 5 min. • (5) The supernatant was transferred into a new 15 ml centrifuge tube, and filtered through 0.22 μm filter membrane with a 50 ml syringe. • (6) RNA was extracted from 100 μl of the supernatant obtained in step (5) and subjected to one step qRT-PCR to measure the virus titer, and the previously extracted virus RNA with known titer was handled together as a control. 3. Measure Antiviral Efficiency of Polypeptide in RD Cells. • (1) Different cells were plated in 24-well cell plates. • (2) After the cells reached 70%-80% confluence, the MEM medium containing 10% serum was replaced with a MEM medium containing 2% serum (0.5 ml/well), and 5 μl of 10^6 PFU/mL EV71 viruses per well were added. • (3) After 1 h, different polypeptides were added at a final concentration of 0.01 μM, 0.1 μM, 1 μM, 10 μM, and 50 μM, respectively. • (4) Samples were collected 24 hours after virus infection, and RNA was extracted with total RNA extraction kit as follows. • (5) The supernatant in the wells was discarded, then 350 μl of TRK Lysis Buffer was added to each well and the plate was shaken on the shaker for 5 minutes. • (6) 350 μl of 70% ethanol (DEPC-treated) was added to the well and the plate was shaken on the shaker for 5 minutes. • (7) The mixture in the well was transferred to a RNA extraction column and centrifuged at 12,000 g for 1 min. • (8) The solution collected in the recovery tube was added back to the column and centrifuged at 12,000 g for 1 min. • (9) RNA washing buffer 1 was added to the column and centrifuged at 12,000 g for 30 s. • (10) RNA washing buffer 2 was added to the column and centrifuged at 12,000 g for 1 min. • (11) Step (10) was repeated once. • (12) The column was centrifuged at 12000 g for 2 min to completely remove residual RNA washing buffer. • (13) 50 μl DEPC-treated H2O was added to the column and centrifuge at 12,000 g for 2 min. • (14) 2 μl RNA sample was used according to one step qRT-PCR kit for fluorescence quantification experiment.
# RD cells added with R8 penetrating peptide (sequence: RRRRRRRR) were used as a negative control.
# RD cells were used to test the antiviral effect of polypeptide P2. EV71 (MOI=0.1) was added to RD cells at 80% confluence. After 1 hour of infection, polypeptide P2 was added at concentrations of 0.01 μM, 0.1 μM, 1 μM, 10 μM, and 50 μM, respectively. The samples were collected 24 hours later, and the total RNA was extracted. The level of viral genomic RNA was detected by qRT-PCR. The cells infected with the same type virus and added with penetrating peptide R8 were used as a control group.
# • (1) RD cells were plated in five 100 mm dishes. • (2) After the cells reached 70%-80% confluence, the MEM medium containing 10% serum was replaced with a MEM medium containing 2% serum. […] When the changes were obvious, samples were collected as follows. • (4) The supernatant in the 100 mm dish was transferred into a 15 ml centrifuge tube, and centrifuged at 500 g for 5 min. • (5) The supernatant was transferred into a new 15 ml centrifuge tube, and filtered through 0.22 μm filter membrane with a 50 ml syringe. • (6) RNA was extracted from 100 μl of the supernatant obtained in step (5) and subjected to one step qRT-PCR to measure the virus titer, and the previously extracted virus RNA with known titer was handled together as a control. 3. […]
Compound,"viability at 24 h, 0.01 µM ([1]; RD cells) [%]","viability at 24 h, 0.1 µM ([1]; RD cells) [%]","viability at 24 h, 1 µM ([1]; RD cells) [%]","viability at 24 h, 10 µM ([1]; RD cells) [%]","viability at 24 h, 100 µM ([1]; RD cells) [%]",CC50 at 24 h [1] [µM],Cell viability (%) (RD cells; 0.01 μM polypeptide),Cell viability (%) (RD cells; 0.1 μM polypeptide),Cell viability (%) (RD cells; 1 μM polypeptide),Cell viability (%) (RD cells; 10 μM polypeptide),Cell viability (%) (RD cells; 100 μM polypeptide),"cytotoxicity, result in words (RD cells)","Relative viral RNA amount (%) (EV71; EV71 MOI=0.1, 0.01 μM)","Relative viral RNA amount (%) (EV71; EV71 MOI=0.1, 0.1 μM)","Relative viral RNA amount (%) (EV71; EV71 MOI=0.1, 1 μM)","viability at 24 h ([1]; RD cells, Cell viability (%)) [%]","Relative viral RNA amount (%) (EV71; EV71 MOI=0.1, 10 μM)"
CC[C@H](C)[C@H](NC(=O)[C@H](Cc1c[nH]c2ccccc12)NC(=O)CNC(=O)[C@H](CCC(N)=O)NC(=O)[C@H](CCC(=O)O)NC(=O)[C@H](CCCNC(=N)N)NC(=O)[C@H](CS)NC(=O)[C@H](Cc1ccc(O)cc1)NC(=O)[C@H](CCC(N)=O)NC(=O)[C@H](CCCNC(=N)N)NC(=O)[C@@H](NC(=O)[C@H](CCC(=O)O)NC(=O)[C@H](CCC(=O)O)NC(=O)CNC(=O)[C@H](CO)NC(=O)CNC(=O)[C@H](CCCNC(=N)N)NC(=O)[C@H](CCCNC(=N)N)NC(=O)[C@H](CCCNC(=N)N)NC(=O)[C@H](CCC(N)=O)NC(=O)[C@H](CCCNC(=N)N)NC(=O)[C@H](CCCNC(=N)N)NC(=O)[C@H](CCCCN)NC(=O)[C@H](CCCCN)NC(=O)[C@H](CCCNC(=N)N)NC(=O)CNC(=O)[C@@H](N)Cc1ccc(O)cc1)C(C)C)C(=O)N[C@H](C(=O)N1CCC[C@H]1C(=O)O)[C@@H](C)CC [3A-TAT-EP],103,106,103,103,100,> 100,98.82% and 106.3%,104.9% and 99.14%,105.5% and 102.9%,107.1% and 98.61%,97.06% and 98.38%,not toxic to cells within 100 μM,,,,,
CCCCCCCCCCCCCCCC(=O)NCCCC[C@H](NC(=O)CCNC(=O)[C@@H]1CCCN1C(=O)[C@@H](NC(=O)[C@@H](NC(=O)[C@H](Cc1c[nH]c2ccccc12)NC(=O)CNC(=O)[C@H](CCC(N)=O)NC(=O)[C@H](CCC(=O)O)NC(=O)[C@H](CCCNC(=N)N)NC(=O)[C@H](CS)NC(=O)[C@H](Cc1ccc(O)cc1)NC(=O)[C@H](CCC(N)=O)NC(=O)[C@H](CCCNC(=N)N)NC(=O)[C@@H](NC(=O)[C@H](CCC(=O)O)NC(=O)[C@@H](N)CCC(=O)O)C(C)C)[C@@H](C)CC)[C@@H](C)CC)C(=O)O [EP-PA],,,,,,,,,,,,,83.07% and 76.47% and 56.74%,79.01% and 67.55% and 53.7%,86.29% and 75.98% and 56.91%,,
"N=C(N)NCCC[C@H](NC(=O)[C@H](CCCNC(=N)N)NC(=O)[C@H](CCCNC(=N)N)NC(=O)[C@H](CCCNC(=N)N)NC(=O)[C@H](CCCNC(=N)N)NC(=O)[C@H](CCCNC(=N)N)NC(=O)[C@H](CCCNC(=N)N)NC(=O)[C@@H](N)CCCNC(=N)N)C(=O)O [R8, reference compound]",,,,,,,,,,,,,,,,104,
"EP-CHOL: SEQ ID NO: 9, EEVRQYCREQGWIIP-AK-cholesterol (Chol)",,,,,,,,,,,,,75.49% and 59.54% and 59.75%,75.76% and 70.99% and 60.98%,96.78% and 76.07% and 59.55%,,39.12% and 66.18% and 37.09%
RRRRRRRRAISDLLAS [P1],103,106,103,103,100,> 100,98.82% and 106.3%,104.9% and 99.14%,105.5% and 102.9%,107.1% and 98.61%,97.06% and 98.38%,not toxic to cells within 100 μM,,,,,
